In patent US12077503B2, “Substituted cyclic amides and their use as herbicides” (FMC CORPORATION, priority 2015, dated 2024):

Legend:
Format in all cases: in vivo
[1] = system: sedge, umbrella (small-flower umbrella sedge, Cyperus difformis); assay: Test B flooded paddy test; conditions: Cyperus difformis, 250 g ai/ha, Flood; 0 to 100 scale where 0 is no effect and 100 is complete control; read-out: Sedge, Umbrella plant response rating
Summary of the method: (§1)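 Plants at 2-leaf stage flooded to 3 cm above soil, with compounds applied directly to paddy water and that depth maintained. Plants kept in greenhouse 13–15 d. Visual rating versus controls on a 0 (no effect) to 100 (complete control) scale.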

[2] = system: rice (Oryra sativa); assay: Test B flooded paddy test; conditions: Oryza sativa, 250 g ai/ha, Flood; 0 to 100 scale where 0 is no effect and 100 is complete control; read-out: Rice plant response rating
Summary of the method: as §1

[3] = system: ducksalad (Heteranthera limosa); assay: Test B flooded paddy test; conditions: Heteranthera limosa, 250 g ai/ha, Flood; 0 to 100 scale where 0 is no effect and 100 is complete control; read-out: Ducksalad plant response rating
Summary of the method: as §1

[4] = system: barnyardgrass (Echinochloa crus-galli); assay: Test B flooded paddy test; conditions: Echinochloa crus-galli, 250 g ai/ha, Flood; 0 to 100 scale where 0 is no effect and 100 is complete control; read-out: Barnyardgrass plant response rating
Summary of the method: as §1

[5] = system: giant foxtail (Setaria faberii); assay: Test A preemergence; conditions: Setaria faberi, pre-emergence, 240 h, preemergence, 0 to 100 scale where 0 is no effect and 100 is complete control, read-out: Foxtail, Giant plant response rating
Summary of the method: (§2)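 Greenhouse, ~10 d after spray; visual injury vs untreated controls, 0 = no effect, 100 = complete control. Preemergence: directed soil spray over planted seeds. Postemergence: plants 2–10 cm, 1–2 leaf stage. Loam/sand blend. Compound in non-phytotoxic solvent with surfactant.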

[6] = system: Kochia (Kochia scoparia); assay: Test A preemergence; conditions: Bassia scoparia, pre-emergence, 240 h, preemergence, 0 to 100 scale where 0 is no effect and 100 is complete control, read-out: Kochia plant response rating
Summary of the method: as §2

[7] = system: pigweed (Amaranthus retroflexus); assay: Test A preemergence; conditions: Amaranthus retroflexus, pre-emergence, 240 h, preemergence, 0 to 100 scale where 0 is no effect and 100 is complete control, read-out: Pigweed plant response rating
[8] = system: ryegrass, Italian (Italian ryegrass, Lolium multiflorum); assay: Test A preemergence; conditions: Lolium multiflorum, pre-emergence, 240 h, preemergence, 0 to 100 scale where 0 is no effect and 100 is complete control, read-out: Ryegrass, Italian plant response rating
Summary of the method: as §2

[9] = system: ragweed (common ragweed, Ambrosia elatior); assay: Test A preemergence; conditions: Ambrosia artemisiifolia, pre-emergence, 240 h, preemergence, 0 to 100 scale where 0 is no effect and 100 is complete control, read-out: Ragweed plant response rating
Summary of the method: as §2

[10] = system: barnyardgrass (Echinochloa crus-galli); assay: Test A preemergence; conditions: Echinochloa crus-galli, pre-emergence, 240 h, preemergence, 0 to 100 scale where 0 is no effect and 100 is complete control, read-out: Barnyardgrass plant response rating
Summary of the method: as §2

[11] = system: Kochia (Kochia scoparia); assay: Test A postemergence; conditions: Bassia scoparia, post-emergence, 240 h, postemergence
Summary of the method: as §2

[12] = system: pigweed (Amaranthus retroflexus); assay: Test A postemergence; conditions: Amaranthus retroflexus, post-emergence, 240 h, postemergence
Summary of the method: as §2

[13] = system: Galium (catchweed bedstraw, Galium aparine); assay: Test A postemergence; conditions: Galium, post-emergence, 240 h, postemergence
Summary of the method: as §2

[14] = system: corn (Zea mays); assay: Test A postemergence; conditions: Zea mays, post-emergence, 240 h, postemergence
Summary of the method: as §2

[15] = system: barnyardgrass (Echinochloa crus-galli); assay: Test A postemergence; conditions: Echinochloa crus-galli, post-emergence, 240 h, postemergence
Summary of the method: as §2

[16] = 125 g ai/ha, visual injury rating, approximately 10 d

CN1C[C@H](c2ccc(C#N)cc2)[C@@H](C(=O)Nc2cccc(F)c2F)C1=O [Compound 1208]
pest or weed control at 250 g/ha [1]: 0% | pest or weed control at 250 g/ha [2]: 15% | pest or weed control at 250 g/ha [3]: 95% | pest or weed control at 250 g/ha [4]: 45% | pest or weed control at 125 g/ha [5, 16]: 100% | pest or weed control at 500 g/ha ([5]; 500 g ai/ha): 100% | pest or weed control at 125 g/ha [6, 16]: 70% | pest or weed control at 500 g/ha ([6]; 500 g ai/ha): 100% | pest or weed control at 125 g/ha [7, 16]: 60% | pest or weed control at 500 g/ha ([7]; 500 g ai/ha): 90% | pest or weed control at 125 g/ha [8, 16]: 20% | pest or weed control at 500 g/ha ([8]; 500 g ai/ha): 70% | pest or weed control at 125 g/ha [9, 16]: 40% | pest or weed control at 500 g/ha ([9]; 500 g ai/ha): 100% | pest or weed control at 125 g/ha [10, 16]: 90% | pest or weed control at 500 g/ha ([10]; 500 g ai/ha): 100% | pest or weed control at 125 g/ha ([11]; 125 g ai/ha, visual injury vs untreated controls after approx. 10 d, 0 = no effect, 100 = complete control, read-out: Kochia plant response rating (0 to 100 scale)): 70% | pest or weed control at 500 g/ha ([11]; 500 g ai/ha, 0 to 100 scale, 0 is no effect, 100 is complete control, read-out: Kochia plant response rating): 70% | pest or weed control at 125 g/ha ([12]; 125 g ai/ha, visual injury vs untreated controls after approx. 10 d, 0 = no effect, 100 = complete control, read-out: Pigweed plant response rating (0 to 100 scale)): 30% | pest or weed control at 500 g/ha ([12]; 500 g ai/ha, 0 to 100 scale, 0 is no effect, 100 is complete control, read-out: Pigweed plant response rating): 60% | pest or weed control at 125 g/ha ([13]; 125 g ai/ha, visual injury vs untreated controls after approx. 10 d, 0 = no effect, 100 = complete control, read-out: Galium plant response rating (0 to 100 scale)): 40% | pest or weed control at 500 g/ha ([13]; 500 g ai/ha, 0 to 100 scale, 0 is no effect, 100 is complete control, read-out: Galium plant response rating): 50% | plant injury at 125 g/ha ([14]; 125 g ai/ha, visual injury vs untreated controls after approx. 10 d, 0 = no effect, 100 = complete control, read-out: Corn plant response rating (0 to 100 scale)): 20% | plant injury at 500 g/ha ([14]; 500 g ai/ha, 0 to 100 scale, 0 is no effect, 100 is complete control, read-out: Corn plant response rating): 50% | pest or weed control at 125 g/ha ([15]; 125 g ai/ha, visual injury vs untreated controls after approx. 10 d, 0 = no effect, 100 = complete control, read-out: Barnyardgrass plant response rating (0 to 100 scale)): 100% | pest or weed control at 500 g/ha ([15]; 500 g ai/ha, 0 to 100 scale, 0 is no effect, 100 is complete control, read-out: Barnyardgrass plant response rating): 100%
